Patent US20150355163A1, “T-TYPE CALCIUM CHANNEL INHIBITORS FOR TREATMENT OF CANCER” (TAU THERAPEUTICS LLC, priority 2013, published 2015)
Entries after “also recorded” stand apart in the source; their conditions may differ. Where two headings read alike, the source gives them in different places.

Assays:
[1] = test system: cancer cells; assay: Cancer cell proliferation; format: cell-based; conditions: in words
[2] = test system: T1, T-type Ca^2+ channel; assay: Inhibition of T-type Ca^2+ channel activity in a cell with the membrane potential held (patch-clamp); format: cell-based; conditions: in words; for inhibition of T-type Ca^2+ channel activity: cell membrane potential about −90 mV
T1 construct: other: cell membrane potential about −90 mV, in words; other: in words; selectivity for the −90 mV state relative to −40 mV; other: cell membrane potential about −30 mV to −60 mV
From the text: This disclosure further provides methods of identifying compounds that inhibit T-type Ca^2+ channel activity in a cell when the cell membrane potential is about −90 mV. These methods include determining the ability of a compound to inhibit T-type Ca^2+ channel activity in a cell when the cell membrane potential is held at about −90 mV. The membrane potential can be held at about −90 mV by techniques known in the art, such as the patch-clamp technique. The ability of a compound to inhibit T-type Ca^2+ channel activity in a cell when the cell membrane potential is about −90 mV can be determined, for example, by determining the ability of the compound to prevent growth factor-stimulated calcium entry into the cell. Calcium entry into the cell can be determined by measuring increases in levels of intracellular calcium, such as by use of a calcium sensitive fluorescent dye.
This disclosure further provides methods of identifying compounds that inhibit T-type Ca^2+ channel activity in a cell when the cell membrane potential is about −90 mV. Such compounds can be identified by measuring inhibition of T-type Ca^2+ channel activity in a cell using standard electrophysiological methods such as patch clamp or by measuring the ability of a pharmaceutical agent to block calcium entry into a cell, such as a cancer cell, when that cell is stimulated by a mitogen, such as a growth factor. Such methods are disclosed, for example, in Densmore, et al., FEBS Lett. 312:161-164 (1992); Haverstick, et al., Mol. Biol. Cell 4:173-184 (1993); and Gomora et al., J. Pharmacol. Exp. Ther. 292:96-103 (2000), the contents of which are incorporated by reference. Calcium entry can be determined by methods such as intracellular entrapment of a Ca^2+ sensitive fluorescent dye.
In some embodiments, the cell membrane potential can be controlled using a patch-clamp technique. In some embodiments cell membrane potential can be controlled using any other technique described herein or known in the art.

[3] = test system: T1, T-type Ca^2+ channel; conditions: cited from earlier work; for potency for inhibition of the T-type calcium channel: in words; for IC50: read-out: IC50 for inhibiting T-type Ca^2+ channel activity
[4] = used by almost a million patients; cited from earlier work
[5] = test system: human glioblastoma; conditions: seven day course of mibefradil, then five day course of temozolomide; cited from earlier work
[6] = molecular target: CYP 450 3A4 (Homo sapiens, UniProt P08684); conditions: in words; cited from earlier work
CYP 450 3A4, sequence (P08684 whole entry): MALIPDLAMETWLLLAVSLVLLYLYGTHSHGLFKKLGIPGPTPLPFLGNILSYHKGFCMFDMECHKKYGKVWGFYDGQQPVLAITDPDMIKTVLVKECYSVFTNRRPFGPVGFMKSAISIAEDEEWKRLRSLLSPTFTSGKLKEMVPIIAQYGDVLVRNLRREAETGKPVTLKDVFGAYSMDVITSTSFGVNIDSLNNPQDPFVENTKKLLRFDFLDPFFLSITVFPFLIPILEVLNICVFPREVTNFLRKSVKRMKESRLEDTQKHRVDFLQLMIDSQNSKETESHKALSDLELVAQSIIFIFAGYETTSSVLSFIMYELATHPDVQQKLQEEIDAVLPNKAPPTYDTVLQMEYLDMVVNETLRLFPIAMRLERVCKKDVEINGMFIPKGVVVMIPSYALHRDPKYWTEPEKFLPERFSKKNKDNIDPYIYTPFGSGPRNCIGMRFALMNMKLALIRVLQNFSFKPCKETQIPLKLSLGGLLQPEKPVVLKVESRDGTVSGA

[7] = test system: T-type Ca^2+ channel; conditions: ratio; cited from earlier work

| SMILES | anti-proliferative activity [1] | selectivity for the −90 mV state relative to −40 mV [2] | potency for inhibition of the T-type calcium channel [3] | inhibition of T-type Ca^2+ channel activity [2] | also measured |
| --- | --- | --- | --- | --- | --- |
| C[C@@H](NC(=O)Cc1ccc(C2CC2)cc1)c1ccc(OCC(F)(F)F)cn1 [TTA-A2] | without anti-proliferative activity; also recorded: little or no effect | decreased selectivity | high potency | – | – |
| CC(C)c1ccc(CC(=O)N[C@H](C)c2ccc(OCC(F)(F)F)cn2)cc1 [MK-8998] | without anti-proliferative activity; also recorded: little or no effect | decreased selectivity | high potency | – | – |
| COc1ccc(CCN2CCC[C@H]2COC(c2ccccc2)c2ccc(Cl)cc2)cc1 (stereo partly drawn) [TH-1177] | – | – | – | inhibit | – |
| COCC(=O)O[C@]1(CCN(C)CCCc2nc3ccccc3[nH]2)CCc2cc(F)ccc2[C@@H]1C(C)C [mibefradil] | inhibit cancer cell proliferation | preferentially blocks the −90 mV state | – | inhibit | tolerability [4]: remarkably well tolerated; anti-proliferative activity ([1]; listed as Mibefradil): antiproliferative; effect on the cytotoxic effect of temozolomide [5]: significantly increased; also recorded: restored the sensitivity to temozolomide; inhibition of CYP 450 3A4 [6]: inhibition; preference for blocking channels at about −30 mV to −60 mV over −90 mV [7]: 10 to 1; IC50 ([3]; cell membrane potential about −30 mV to −60 mV): ≥ 100 nM; IC50 ([3]; cell membrane potential of −80 mV to −90 mV): ~1000 nM |
| O=c1[nH]c2cc(Cl)ccc2n1C1CCN(CCCC(c2ccc(F)cc2)c2ccc(F)cc2)CC1 [chlopimozide] | anti-proliferative | – | – | – | – |
